Test results published in US11964960B2 (Cornell University, priority 2018, dated 2024).

Key:
bile duct ligated mice = experiment: Bile duct ligation (BDL) liver fibrosis model; format: in vivo, mouse; settings: 30 mg/kg daily
Protocol: Six to eight-week-old mice were subjected to bile duct ligation to induce mouse cirrhotic liver injury model. To perform BDL, mice were subjected to a mid-abdominal incision, under general anesthesia. The common bile duct was ligated in two adjacent positions approximately 1 cm from the porta hepatis. The duct was then severed by incision between the two sites of ligation. One day after surgery, mice were administered compounds described herein at […] once daily. Drug delivery was performed by gavage in 0.5% methylcellulose with 0.1 Tween 80. Eight days after BDL surgery mice were harvested, though the harvesting can be performed at any suitable period of time, including 14 days after BDL surgery. Blood serum was collected for liver enzyme analysis and livers were harvested and were either snap frozen or fixed with 4% PFA and cryopreserved in OCT for sectioning and immunohistochemical analysis.
To test whether the compounds described herein act as S1PR2 antagonists in vivo, their effect was tested in BDL, a clinically relevant liver cholestasis model. The common bile duct was ligated and resected as described herein to cause biliary epithelial damage. One day post-surgery, mice were treated daily with 30 mg/kg of compound 29 or JTE-013:
In this double-blind mouse BDL study, the compounds were administered orally by gavage. […]

S1PR2 [1] = target: T1, S1PR2 (Mus musculus, UniProt P52592); experiment: Immunoblot analysis of S1PR2 levels in liver tissue from mouse BDL study; format: in vivo; settings: 30 mg/kg daily, orally; liver at end of eight-day study (FIG. 3)
T1 construct: Liver tissues were collected at necropsy, flash frozen, and pulverized; from tissue; host or cells: mouse liver (bile duct ligation model)
T1 sequence (P52592 whole entry): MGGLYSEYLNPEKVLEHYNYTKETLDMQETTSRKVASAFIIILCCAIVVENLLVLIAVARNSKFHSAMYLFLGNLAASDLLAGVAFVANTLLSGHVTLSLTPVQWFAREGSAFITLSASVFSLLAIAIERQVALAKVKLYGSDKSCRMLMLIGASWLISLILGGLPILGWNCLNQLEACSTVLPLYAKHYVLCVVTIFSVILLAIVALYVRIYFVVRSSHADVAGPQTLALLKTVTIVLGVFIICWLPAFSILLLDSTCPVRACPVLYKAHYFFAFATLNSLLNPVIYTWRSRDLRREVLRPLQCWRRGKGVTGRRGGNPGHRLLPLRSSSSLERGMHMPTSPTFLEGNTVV
Excerpt: Liver tissues were collected at necropsy, flash frozen, and pulverized. The powder was resuspended in RIPA lysis buffer with PI, NAF, and sodium deoxy cholate.
Liver samples collected in an identical manner from S1PR2 global KO and WT mice served as positive controls.

[2] = tested on: BDL murine models of liver disease; settings: multiple studies (Wang 2017; Yang 2015); cited from earlier work
[3] = tested on: WT mice subjected to ischemia/reperfusion (I/R); settings: I/R (Kim 2015); cited from earlier work
S1PR2 [4] = target: T2, S1PR2 (Homo sapiens, UniProt O95136); settings: Bioorg. Med. Chem. 21: 5373-5382 (2013); cited from earlier work
Target sequence in this assay (O95136 whole entry): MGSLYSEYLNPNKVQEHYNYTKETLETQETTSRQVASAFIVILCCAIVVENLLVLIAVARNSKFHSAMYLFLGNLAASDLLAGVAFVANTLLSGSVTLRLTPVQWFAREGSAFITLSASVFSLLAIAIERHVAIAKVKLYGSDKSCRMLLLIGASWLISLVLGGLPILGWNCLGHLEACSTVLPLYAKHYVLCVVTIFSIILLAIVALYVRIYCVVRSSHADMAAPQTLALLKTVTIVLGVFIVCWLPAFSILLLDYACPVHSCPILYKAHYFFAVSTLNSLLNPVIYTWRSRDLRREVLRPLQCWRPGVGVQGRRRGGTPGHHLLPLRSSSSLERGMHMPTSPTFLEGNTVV

[5] = cited from earlier work
S1P2 = target: T3, S1P2 (Homo sapiens, UniProt O95136); experiment: GLISA RhoA activation - antagonist assay; format: cell-based; settings: 1 μM compound, CHO-S1P2-FL cells
T3 construct: Flag; expressed in transfected cells; host or cells: Chinese hamster ovary (CHO) cells, doxycycline-inducible (CHO-S1P2-FL / CHO-S1PR2 FL)
T3 sequence (O95136 whole entry, species assumed): as the sequence (O95136 whole entry) above
Summary of the method: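 Doxycycline-induced CHO cells expressing Flag-tagged S1P2, serum-starved, pretreated 1 h at 37 °C with compound (1 nM-10 μM), then washed and stimulated 5 min with […]. Protein-normalized lysates captured on GTP-RhoA plates; active RhoA quantified by G-LISA.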

S1PR2 [6] = target: T2, S1PR2; experiment: FLIPR calcium activation - antagonist assay; format: cell-based; set-up: Flag; expressed in transfected cells; host or cells: Chinese hamster ovary (CHO) cells, doxycycline-inducible (CHO-S1P2-FL / CHO-S1PR2 FL); settings: CHO-S1PR2 FL cells, 1 hour compound incubation
Protocol: FLIPR Calcium Activation—Antagonist Assay
An assay was performed using Fluo-4 NW Calcium activation kit (#F36206) purchased from Molecular Probes/Life Technologies, Grand Island, NY. Calcium assay was performed according to the manufacturer's instructions. Briefly, CHO-S1PR2 FL cells (5×10^4 cells (for 384 well plate) or 7.5×10^4 cells (for 96 well plate)) were seeded 24 hours prior to experiment in serum free IMDM media supplemented with 0.1% fatty acid free BSA/PBS (SFM). After starvation, cells were stimulated with the compounds described herein (1 nM-10 μM) for 1 hour in SFM at room temperature. Cells were then washed with PBS and prepared for Calcium induction assay as instructed in Fluo-4 NW Calcium activation kit protocol. For calcium induction, 100 nM […] or 1 μM ATP were added in ligand plate places in the Hamamatsu FDSS6000 drug screening system. Ligand was added in 15 seconds intervals for 15 min and signal ratio of […] was measured using the Hamamatsu FDSS6000 instrument.
Target sequence in this assay (O95136 whole entry, species assumed): as the sequence (O95136 whole entry) above

Question: For `Cc1nn(C)c2nc(NNC(=O)Nc3cc(Cl)nc(Cl)c3)cc(C(C)C)c12` [JTE-013], which “serum ALB levels” value (bile duct ligated mice; orally by gavage (FIG. 2C)) is on record?
Answer: Its value is “remained constant”.

Question: What about the “survival / mortality post bile duct ligation” value (bile duct ligated mice; orally by gavage, from one day post-surgery, eight-day study (FIG. 1A)) of the same compound?
Answer: The value was “lower than that observed for the vehicle arm”.

Question: And the “S1PR2 levels in liver (immunoblot)” value (S1PR2 [1])?
Answer: Its value is “visible”.

Question: What about the liver injury [2] of the same compound?
Answer: The liver injury was “protect against liver injury”.

Question: And the edema ratio [3]?
Answer: Its edema ratio is “dramatic decrease”.

Question: What about the infarct ratio [3] of the same compound?
Answer: Its infarct ratio is “dramatic decrease”.

Question: What about the neurological scores [3] of the same compound?
Answer: Its neurological scores is “improved”.

Question: Which “activity at the S1PR2 receptor” value (S1PR2 [4]) does the source give for `Cc1cc(C(=O)Cn2cc(C#N)ccc2=O)c(C)n1Cc1ccccc1` [CYM-5520] here?
Answer: Its value is “weak allosteric agonist”.

Question: And the aqueous solubility [5]?
Answer: The aqueous solubility was “poor aqueous solubility”.

Question: For `C#Cc1ccc(=O)n(CC(=O)c2cnn(Cc3cccnc3)c2C)c1` [Compound 35, 5-ethynyl-1-(2-(5-methyl-1-(pyridin-3-ylmethyl)-1H-pyrazol-4-yl)-2-oxoethyl)pyridin-2(1H)-one], which inhibition at 1 µM (S1P2) is on record?
Answer: The inhibition at 1 µM was 69%.

Question: What about the IC50 (S1PR2 [6]) of the same compound?
Answer: The IC50 was 0.386 µM.

Question: For `C#Cc1ccn(CC(=O)c2cnn(Cc3ccccc3)c2C)c(=O)c1` [Example 38], which inhibition at 1 µM (S1P2) is on record?
Answer: Its inhibition at 1 µM is 17%.

Question: And the IC50 (S1PR2 [6])?
Answer: Its IC50 is 3.6 µM.

Question: For `Cc1c(C(=O)Cn2ccc(Br)cc2=O)cnn1Cc1ccccc1` [Example 37, 1-(2-(1-Benzyl-5-methyl-1H-pyrazol-4-yl)-2-oxoethyl)-4-bromopyridin-2(1H)-one], which inhibition at 1 µM (S1P2) is on record?
Answer: Its inhibition at 1 µM is 15%.

Question: What about the IC50 (S1PR2 [6]) of the same compound?
Answer: The IC50 was 4.4 µM.

Question: Which inhibition at 1 µM (S1P2) does the source give for `C#Cc1ccc(=O)n(CC(=O)c2cnn(Cc3cccc(C(=O)O)c3)c2C)c1` [Example 36, 3-((4-(2-(5-Ethynyl-2-oxopyridin-1(2H)-yl)acetyl)-5-methyl-1H-pyrazol-1-yl)methyl)benzoic Acid] here?
Answer: The inhibition at 1 µM was < 10%.

Question: And the IC50 (S1PR2 [6])?
Answer: The IC50 was 9.8 µM.
